Numbered stars: 1 amine (or outer) side, 2 acyl side, 3 side chain; on linkers, the order of the positions; unused ones are H or OH. Square brackets hold non-standard residues; d marks the D form. Peptide text beside a SMILES is read from it. * marks the point of attachment. Dolaproine = CO[C@@H]([C@@H]1CCCN1)[C@@H](C)C(=O)O; Dil = CC[C@H](C)[C@H](NC)[C@@H](CC(=O)O)OC; PABC = O=C(OCc1ccc(N[*:1])cc1)[*:2]; X1 = C[C@@H](N*)[C@@H](O)c1ccccc1; Cit = NC(=O)NCCC[C@H](N)C(=O)O; NMeV = CN[C@H](C(=O)O)C(C)C

Experimental findings from US20250114473A1, “COMPOUND FOR CONJUGATION, CONJUGATE AND PHARMACEUTICAL COMPOSITION COMPRISING THE SAME” (priority 2023, published 2025) are described below.

Data set [1] in a line: Water solubility testing (dissolved with minimal DMSO, precipitated by addition of water). It is filed as physicochemical. The conditions noted are these: precipitated by addition of water to DMSO solution. As for the experimental part:
Briefly, the moiety-compound conjugates was dissolved with minimal DMSO and precipitated by the addition of water. […] However, Entry 5 and Entry 4 are conjugates with two-arm, with no PEG linker or two PEG4 linker, respectively, which were precipitated in 19.5% and 30.8% Water/DMSO. Thus, the results of water solubility of the conjugates are consistent with the inventors' hypothesis.

For data set [2], the system named is MCF-7 (HER2 1+). The experiment in a line: Anti-proliferation assay (CCK-8) of linker-drug combinations, drugs and cleaved products. It is filed as cell-based. As for the experimental part:
(§1) Additionally, a series of experiments were conducted, including anti-proliferation assays for linker-drug combinations (i.e. the compounds in the present disclosure), the drugs thereof, and the cleaved products thereof after cleavage by the Cathepsin B enzyme in cells. These assays were performed using HER2-expressing cell lines. MCF-7 and SK-BR-3 cell lines were seeded at a density of 1.5×10^3 to 1×10^4 cells/well in 90 μL of the corresponding culture medium, and cultured at 37° C. in a CO2 incubator (Forma/ThermoFisher (370) or BINDER (CB130)) with a range of dilutions (0-1000 nM) of the compounds in the present disclosure, the drugs thereof, and the cleaved products thereof. Cell density for each sample was recorded by measuring the absorbance of Cell Counting Kit-8 (CCK-8) at 450 nm. Data analysis was performed using GraphPad Prism 8.0.1, and the best-fit four-parameter dose-response curve was selected. Half Maximal Inhibitory Concentration (IC50) values were determined via nonlinear regression; consistency between batches was assessed using One-way ANOVA. The relevant experimental results are detailed in Table 4. […] Such reduced toxicity of the linker-drug combinations (i.e, the compounds in the present disclosure) offers significant advantages in moiety-drug conjugate applications, including better biocompatibility, enhanced therapeutic efficacy, and greater dosing flexibility.

Data set [3] concerns SK-BR-3 (HER2 3+). Described as above. The format is cell-based. The conditions noted are these: 0-1000 nM. As for the experimental part:
as §1

A short description of data set [4]: Plasma stability, released drug by LC-MS/MS. It is filed as in vitro ADME. The note with it: for drug release trend: over a 13-day period; for free drug percentage: 13 days. The source says: To further advance the research, a set of the compounds in the present disclosure, FL-F21N-L111-P204 and FL-F21N-L106-P204, each containing single-arm and dual-arm respectively, was selected for plasma stability testing in both humans and rats. These were then compared in detail with commercially available Deruxtecan (Dxd) and VC-PAB-MMAE to evaluate their stability and safety in blood.
These calculations were based on standard drugs (e.g., Eribulin, MMAE, Dxd) and they were accurately measured using liquid chromatography-tandem mass spectrometry (LC-MS/MS). […] This trend provides an in-depth understanding of the drug release dynamics.
These experimental results provide crucial data supporting the efficacy and safety of the compounds in the present disclosure.

For data set [5], the system named is MCF-7 (HER2 1+). The data set is described as follows: Cell toxicity testing of moiety-drug conjugates (CCK-8). It is filed as cell-based. Here is the method:
(§2) The experiment involved optimizing seeding densities (1.5×10^3 to 1.5×10^4 cells/well) for each cell line (SK-BR-3, MCF-7, MDA-MB-231, MDA-MB-436) in 90 IL, of culture medium per well in a 96-well plate for 2-hour incubation. Next, 10 μL of a series of diluted ADC solutions (0-500 nM) were added to each well. The concentration of each ADC solution and measurements at four time points (24, 48, 72, and 96 hours) were conducted in triplicate. […] Data analysis was performed with GraphPad Prism 8.0.1, employing a four-parameter logistic curve-fit program.

The subject of a further data set is MDA-MB-231 (HER2−). The description is as above. The conditions noted are these: 0-500 nM. It is filed as cell-based. As for the experimental part: as §2
For the next data set, the system named is MDA-MB-436 (HER2−). Described as above. The conditions noted are these: 0-500 nM. The format is cell-based. As for the experimental part:
as §2

Data set [6] deals with SK-BR-3 (HER2 3+). The description is as above. The format is cell-based. The note with it: 0-500 nM. As for the experimental part:
as §2

For `C=C1C[C@@H]2CC[C@@]34CC5O[C@H]6C(O3)[C@H]3O[C@H](CC[C@@H]3O[C@H]6[C@H]5O4)CC(=O)C[C@@H]3[C@@H](OC)[C@@H](C[C@H](O)CNC(=O)OCCOCCOCCOCCNC(=O)OCc4ccc(NC(=O)[C@H](CCCNC(N)=O)NC(=O)[C@@H](NC(=O)CCCCCN5C(=O)C=CC5=O)C(C)C)cc4)O[C@H]3CC3O[C@@H](CCC1O2)C[C@@H](C)C3=C` [FL-F21N-L111-P204, Mal-Val-Cit-PAB-PEG4-Eribulin], the “Precipitation in % Water/DMSO” value in data set [1] turned out to be 24.5%. Moreover, the IC50 with MCF-7 (HER2 1+) [2] (Homo sapiens, MCF7, 0-1000 nM) amounted to 45.5 nM; in the data set with SK-BR-3 (HER2 3+) [3] (Homo sapiens) it was 30.8 nM. Further, the drug release trend result in data set [4] (human plasma) and in data set [4] (rat plasma) was “stable drug release trends” throughout.
As to `C=C1C[C@@H]2CC[C@@]34CC5O[C@H]6[C@@H](O3)[C@H]3O[C@H](CC[C@@H]3O[C@H]6C5O4)CC(=O)C[C@H]3C(C[C@H]4OC(CC[C@@H]1O2)C[C@@H](C)C4=C)O[C@H](C[C@H](O)CNC(=O)OCCOCCOCCOCCOCCOCCOCCOCCOCCOCCOCCOCCNC(=O)OCc1ccc(NC(=O)[C@H](CCCNC(N)=O)NC(=O)[C@@H](NC(=O)CCCCCN2C(=O)C=CC2=O)C(C)C)cc1)[C@@H]3OC` (stereo partly drawn) [FL-F21N-L162-P204, Mal-Val-Cit-PEG12-Eribulin], the “Precipitation in % Water/DMSO” value in data set [1] is reported as 31.5%.
With `C=C1C[C@@H]2CC[C@@]34CC5O[C@H]6[C@@H](O3)[C@H]3O[C@H](CC[C@@H]3O[C@H]6C5O4)CC(=O)C[C@H]3C(C[C@H]4OC(CC[C@@H]1O2)C[C@@H](C)C4=C)O[C@H](C[C@H](O)CNC(=O)OCCOCCOCCOCCOCCOCCOCCOCCOCCOCCOCCOCCOCCOCCOCCOCCOCCOCCOCCOCCOCCOCCOCCOCCNC(=O)OCc1ccc(NC(=O)[C@H](CCCNC(N)=O)NC(=O)[C@@H](NC(=O)CCCCCN2C(=O)C=CC2=O)C(C)C)cc1)[C@@H]3OC` (stereo partly drawn) [FL-F21N-L163-P204, Mal-Val-Cit-PEG24-Eribulin], the “Precipitation in % Water/DMSO” value in data set [1] came to 38.9%.
As for `C=C1C[C@@H]2CC[C@@]34C[C@H]5O[C@H]6[C@@H](O3)[C@H]3O[C@H](CC[C@@H]3O[C@H]6[C@H]5O4)CC(=O)C[C@@H]3[C@@H](OC)[C@@H](C[C@H](O)CN)O[C@H]3C[C@H]3O[C@@H](CC[C@@H]1O2)C[C@@H](C)C3=C` [P204, Eribulin, reference compound], the IC50 amounted to 0.337 nM with MCF-7 (HER2 1+) [2] (Homo sapiens, MCF7, 0-1000 nM); 0.244 nM with SK-BR-3 (HER2 3+) [3] (Homo sapiens); 0.337 nM in the data set with MCF-7 (HER2 1+) [5] (Homo sapiens, MCF7, 0-500 nM); 2.07 nM in the data set on MDA-MB-231 (HER2−) (Homo sapiens); 1.28 nM in the data set with MDA-MB-436 (HER2−) (Homo sapiens); 0.244 nM in the data set with SK-BR-3 (HER2 3+) [6] (Homo sapiens).
`CC[C@H](C)[C@@H]([C@@H](CC(=O)N1CCC[C@H]1[C@H](OC)[C@@H](C)C(=O)N[C@H](C)[C@@H](O)c1ccccc1)OC)N(C)C(=O)[C@@H](NC(=O)[C@H](C(C)C)N(C)C(=O)OCc1ccc(NC(=O)[C@H](CCCNC(N)=O)NC(=O)[C@@H](N)C(C)C)cc1)C(C)C` [VC-PAB-MMAE, reference compound] (H-V[Cit][PABC][NMeV]V[Dil][Dolaproine]-X1): the free drug percentage in data set [4] (human plasma) was determined as 0.56%; in data set [4] (rat plasma) it was 5.03%.
With “Deruxtecan [L155-P209 (Deruxtecan), reference compound]”, the IC50 with MCF-7 (HER2 1+) [2] (0-1000 nM) came out at 512 nM; in the data set with SK-BR-3 (HER2 3+) [3] it was 432 nM. Also, the free drug percentage in data set [4] (human plasma) was determined as 5.19%; in data set [4] (rat plasma), 0.70%.
On to Dxd [P209, reference compound], for which the concentration for half-maximal inhibition (IC50) with MCF-7 (HER2 1+) [2] (0-1000 nM) was found to be 9.53 nM; in the data set with SK-BR-3 (HER2 3+) [3], 5.51 nM; with MCF-7 (HER2 1+) [5] (0-500 nM), 9.53 nM; in the data set on MDA-MB-231 (HER2−) it was 135 nM; with MDA-MB-436 (HER2−), 5.12 nM; in the data set with SK-BR-3 (HER2 3+) [6] it was 5.51 nM.
Consider “Mal-Val-Cit-PAB-(Eribulin)2 [FL-F21N-L107-P204]”, for which, in data set [1], the “Precipitation in % Water/DMSO” value was 19.5%. Further, the values for the IC50 with MCF-7 (HER2 1+) [2] (0-1000 nM) and in the data set with SK-BR-3 (HER2 3+) [3] were 14.2 nM and 9.24 nM, respectively.
In the case of “Mal-Val-Cit-PAB-(PEG4-Eribulin)2 [FL-F21N-L106-P204]”, in data set [1], the “Precipitation in % Water/DMSO” value is listed as 30.8%. For the same compound, the IC50 amounted to 26.3 nM in the data set with MCF-7 (HER2 1+) [2] (0-1000 nM) and 13 nM with SK-BR-3 (HER2 3+) [3]. Also, the values for the free drug percentage in data set [4] (human plasma) and in data set [4] (rat plasma) were 2.74% and 3.50%, respectively. In addition, the drug release trend entry in data set [4] (human plasma) and in data set [4] (rat plasma) was “stable drug release trends” each time.
With “Trastuzumab-Mal-Val-Cit-PAB-(Eribulin)2 [A701-L107-P204-D08]”, the IC50 worked out at 0.0229 nM in the data set with MCF-7 (HER2 1+) [5] (0-500 nM) and 0.0172 nM in the data set with SK-BR-3 (HER2 3+) [6].
On to “Trastuzumab-Mal-Val-Cit-PAB-(PEG4-Eribulin)2 [A701-L106-P204-D08]”, for which the 50% inhibitory concentration (IC50) worked out at 0.0229 nM in the data set with MCF-7 (HER2 1+) [5] (0-500 nM), 75.2 nM in the data set with MDA-MB-231 (HER2−), 14.6 nM with MDA-MB-436 (HER2−) and 0.0216 nM in the data set with SK-BR-3 (HER2 3+) [6].
Turning to “Trastuzumab-Mal-Val-Cit-PAB-PEG4-Eribulin [A701-L111-P204-D04]”, the IC50 is 3.83 nM with MCF-7 (HER2 1+) [5] (0-500 nM), 148 nM in the data set on MDA-MB-231 (HER2−), more than 250 nM in the data set with MDA-MB-436 (HER2−) and 0.012 nM with SK-BR-3 (HER2 3+) [6].
For “Trastuzumab-Mal-Val-Cit-PAB-PEG4-Eribulin [A701-L111-P204-D08]”, in that order: 0.045 nM, more than 250 nM, 33 nM and 0.012 nM.

The term IC50 denotes the concentration at which inhibition is half-maximal.
